The record followed here is paper PMC11898565, “Perturbation of Pseudomonas aeruginosa peptidoglycan recycling by anti-folates and design of a dual-action inhibitor” (mBio, 2025).

By IC50 is commonly meant the midpoint of a concentration-inhibition curve. The low end stands for greater potency in that assay, the high end for weaker potency in that assay.

For one test, the target named is T1, NDM-1 (Klebsiella pneumoniae, UniProt C7C422).
T1 construct: gene blaNDM-1
As to the kind of experiment: in vitro meropenem hydrolysis assay ([…] nm), […] enzyme, […] ZnSO4. It is filed as biochemical.

The target of the next test is T2, VIM-2 (Pseudomonas aeruginosa, UniProt Q9K2N0).
T2 construct: gene blaVIM-2
The test is described as above. The test is classed as biochemical.

T1 sequence (C7C422 29-270 limits assumed): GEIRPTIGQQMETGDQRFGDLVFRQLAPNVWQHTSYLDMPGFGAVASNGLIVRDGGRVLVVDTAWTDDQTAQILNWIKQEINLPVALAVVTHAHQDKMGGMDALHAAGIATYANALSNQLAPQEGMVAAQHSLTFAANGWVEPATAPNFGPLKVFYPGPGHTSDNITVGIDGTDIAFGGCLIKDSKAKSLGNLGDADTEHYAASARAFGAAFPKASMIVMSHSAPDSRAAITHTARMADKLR

Regarding `Nc1ccc(S(=O)(=O)Nc2scnc2C(=O)O)cc1` [MLLB-2201], the 50% inhibitory concentration (IC50) against NDM-1 came out at 1.8 µM; at VIM-2, 14.5 µM.
